The values below come from PubChem BioAssay AID1626 (SRMLSC, 2009).

This test concerns M. tuberculosis H37Rv growth inhibition. In words: M. tuberculosis H37Rv growth inhibitors, H37Rv strain (AID 1626). The conditions noted are these: for IC90: measured here: IC90 against H37Rv; for CC50: measured here: Vero cell cytotoxicity.

Usually IC50 stands for the midpoint of a concentration-inhibition curve. One may read the IC90 as the point of the concentration-response curve where the effect stands at 90%. Low values mean greater potency, high ones weaker potency. For orientation: CC50 means the concentration giving 50% cytotoxicity. In the case of `CCOC(=O)c1ccc(NC(=O)CSc2ccc(-c3cccnc3)nn2)cc1`, the IC50 was 29.1 µM, the IC90 is more than 100 µM and the CC50 was more than 40 µM.
On to `N#CC1=C(c2ccccc2)/C(=C/c2ccccc2)OC1=O`, for which the IC50 was 17.6 µM, the IC90 was more than 100 µM and the CC50 was determined as 15.4 µM.
With `COc1ccc(-c2nnc(NC(=O)c3ccccc3C)o2)cc1`, the IC50 was 0.944 µM, the IC90 was more than 100 µM and the CC50 is more than 40 µM.
As for `O=C(CCl)NC1CCCc2ccccc21` (stereo not given), the IC50 is 20.6 µM, the IC90 was more than 100 µM and the CC50 was determined as 32.5 µM.
Turning to `Cc1ccccc1N1CCN(C2=NC(=O)/C(=C\c3cccs3)S2)CC1`, the IC50 is 14.2 µM, the IC90 is 21 µM and the CC50 is more than 40 µM.
On to `O=C(NCCCN1CCOCC1)c1ccc([N+](=O)[O-])cc1[N+](=O)[O-]`, for which the IC50 is 6.25 µM and the IC90 was more than 100 µM.
With `CCOC(=O)c1ccc(NC(=O)CCc2nc(-c3ccccc3)no2)cc1`, the half-inhibitory concentration (IC50) was 2.32 µM, the IC90 is more than 100 µM and the CC50 was more than 40 µM.
The compound `C/C(=C\C(=O)c1ccc(C)o1)Nc1ccc2c(c1)OCO2` showed an IC90 of more than 100 µM.
Turning to `CCCCCc1cc(=O)oc2c(C(CCN(CC)CC)c3ccc(OC)cc3)c(OC)cc(OC)c12` (stereo not given), the IC50 is 9.08 µM, the concentration for an effect of 90% (IC90) was found to be 11.7 µM and the cytotoxic concentration (CC50) turned out to be 13 µM.
As to `CCN(CC)CCN1c2ccccc2Sc2ccc3ccccc3c21`, the IC50 was 10.4 µM, the IC90 stood at 18.9 µM and the 50% cytotoxic concentration (CC50) was more than 40 µM.
In the case of `O=[N+]([O-])c1cc(S(=O)(=O)Nc2ccccc2)ccc1N1CCN(c2ccccc2)CC1`, the IC50 was 14.5 µM, the IC90 came to 25.5 µM and the cytotoxic concentration (CC50) came to 28.2 µM.
